{
  "source": "patent US8609410B2",
  "about": "(priority 2005, dated 2013)",
  "type_in_all_cases": "cell-based, human",
  "key": {"[1]": {"test_system": "A27L-specific CD8+ CTLs", "experiment": "Induction of A27L-specific CD8+ CTLs by artificial antigen-presenting cells MDA-MB/CD80 co-pulsed with ZOMETA and A27L", "conditions": "co-pulse 0.01 μM or 1 μM ZOMETA and 2 μg/ml A27L", "quoted_text": "A human CD80 gene, which was a co-stimulatory molecule, was transfected by a lipofection method in a breast cancer-derived cell line: MDA-MB-231 (class I antigen HLA-A*0201) expressing MHC class I molecules, thus establishing a cell line MDA-MB/CD80 expressing human CD80 stably and constantly in MDA-MB-231 cells.\nAs a negative control, MDA-MB/CD80 cells that were cultured without adding ZOMETA™ or the antigenic peptides were used.\nAfter about 12 hours of culture, part of the activated MDA-MB/CD80 cells that were co-pulsed with ZOMETA™ and the antigenic peptides were collected, placed in a 15 ml tube (BD Falcon) and centrifuged at 1500 rpm for 5 minutes. The resultant MDA-MB/CD80 cells in the form of pellets were suspended in 10 ml of an AIM-V medium supplemented with 10% FBS and centrifuged at 1500 rpm for 5 minutes, followed by washing. The washing operation was repeated twice. The MDA-MB/CD80 cells collected in this manner were used as stimulating cells. In other words, the activated MDA-MB/CD80 cells that were co-pulsed with bisphosphonate and the disease antigenic peptides, the MDA-MB/CD80 cells that were pulsed with either of them and the MDA-MB/CD80 cells that were not pulsed with any of them were used as stimulating cells. […]"}, "[2]": {"test_system": "A27L-specific CD8+ CTLs", "experiment": "Induction of A27L-specific CD8+ CTLs by washed pulsed immature dendritic cells co-cultured with lymphocytes (tetramer flow cytometry)", "quoted_text": "(§1) As a negative control, dendritic cells that were cultured without adding ZOMETA™ or the antigenic peptides were used.\nAfter about 12 hours of culture, part of the activated dendritic cells that were co-pulsed with ZOMETA™ and the antigenic peptides were collected, placed in a 15 ml tube (BD Falcon) and centrifuged at 1500 rpm for 5 minutes. The resultant dendritic cells in the form of pellets were suspended in 10 ml of an AIM-V medium supplemented with 10% FBS and centrifuged at 1500 rpm for 5 minutes, followed by washing. The washing operation was repeated twice. The dendritic cells collected in this manner were used as stimulating cells. In other words, the activated dendritic cells that were co-pulsed with bisphosphonate and the disease antigenic peptides, the dendritic cells that were pulsed with either of them and the dendritic cells that were not pulsed with any of them were used as stimulating cells. […]\nAfter dyeing in a shielded state at room temperature for 15 minutes, an anti-CD8 antibody that was labeled with FITC (BD Pharmingen) was added, followed by dyeing in a shielded state at 4° C. for 15 minutes. […] The cells were measured using EPICS XL.MCL, and the results of measurement were analyzed using EPICS 32."}, "[3]": {"test_system": "A27L antigen-specific CD8+ CTLs", "experiment": "Induction of A27L-specific CD8+ CTLs by dendritic cells co-pulsed with ZOMETA and apoptotic melanoma cells", "protocol": "From a healthy donor, 200 ml of peripheral blood was collected. Mononuclear cells were obtained from this peripheral blood of the healthy donor. At this time, a mononuclear cell layer was collected using a density gradient solution for blood cell separation. After several times of washing in order to remove platelets, etc. from the collected cells, CD14-positive cells were isolated as monocytes with MACS. From the obtained dendritic cell precursors, differentiation induction of dendritic cells was carried out. The medium was prepared by adding 500 U/ml of GM-CSF (IMMUNEX) and 500 U/ml of IL-4 (Osteogenetics GmbH) to AIM-V supplemented with 10% FBS. On day 5 to day 7 after starting culture, immature dendritic cells were obtained.\nA cancer cell line derived from MART-1-positive melanoma was collected, placed in a 15 ml tube (BD Falcon) and centrifuged at 1500 rpm for 5 minutes. […]\nUsing the number of all lymphocytes that were proliferated 7, 11 and 14 days after the start of co-culture, a labeled antibody and an antigen-specific tetramer, the ratio of the antigen-specific CD8+ CTLs in all of the lymphocytes was measured with a flow cytometer. […] The cells were measured using EPICS XL.MCL, and the results of measurement were analyzed using EPICS 32."}, "[4]": {"test_system": "BMLF1-specific CD8+ CTLs", "experiment": "Induction of BMLF1-specific CD8+ CTLs by dendritic cells co-pulsed with ZOMETA and BMLF1", "conditions": "for The number of CTLs / The total number of cells / Ratio of CTLs (%): BMLF1 2 μg/ml; for Ratio of CTLs (%): immature dendritic cells, 7 days", "quoted_text": "as §1\nAfter about 12 hours of the culture, part of the activated dendritic cells that were co-pulsed with ZOMETA™ and the antigenic peptides were collected, placed in a 15 ml tube (BD Falcon) and centrifuged at 1500 rpm for 5 minutes. The resultant dendritic cells in the form of pellets were suspended in 10 ml of an AIM-V medium supplemented with 10% FBS and centrifuged at 1500 rpm for 5 minutes, followed by washing. The washing operation was repeated twice. The dendritic cells collected in this manner were used as stimulating cells. In other words, the activated dendritic cells that were co-pulsed with bisphosphonate and the disease antigenic peptides, the dendritic cells that were pulsed with either of them and the dendritic cells that were not pulsed with any of them were used as stimulating cells. Cells prepared by suspending those (a CD14-negative cell population, which was mainly a T cell population) remaining after isolation of the CD14-positive cells for preparing the dendritic cells in an AIM-V medium supplemented with 10% FBS and 10% dimethyl sulfoxide (DMSO), and freeze-preserving them were thawed, washed and used as responding cells. 1×10^5 each of the obtained stimulating cells (dendritic cells) were cultured with 1×10^6 responding cells such that the total amount was 1 ml in a 48-well plate (CORNING) (responding cells:dendritic cells=10:1). The co-culture was carried out at about 37° C. under a condition of 5% CO2 for 7 days. […] In the case where the cells were proliferated rapidly, 1 ml of an AIM-V medium supplemented with 40 U/ml of IL-2 and 10% FBS was added on day 4 to day 6.\nAfter dyeing in a shielded state at room temperature for 15 minutes, an anti-CD8 antibody that was labeled with FITC (BD Pharmingen) was added, followed by dyeing in a shielded state at 4° C. for 15 minutes. As a control, an isotype of each of the antibodies was used. The cells were measured using EPICS XL.MCL, and the results of measurement were analyzed using EPICS 32."}, "[5]": {"test_system": "IFN-γ producing cells", "experiment": "IFN-γ ELISPot of co-cultured immunocytes", "quoted_text": "70% ethanol was added to each well of MultiScreen plate (MILLIPORE) and removed within 2 minutes. Each well of the above-noted plate was washed five times in 200 μl of PBS. […] This plate was left overnight at 4° C. This plate was washed four times in 200 μl/well of PBS. Then, 200 μl of an AIM-V medium supplemented with 10% FBS was added in each well, followed by blocking at room temperature for at least 30 minutes. The blocking medium was removed, and the plate was washed four times in 200 μl/well of PBS. A co-cultured cell population in each condition obtained by a method similar to the above-described co-culture was collected by centrifugation and washed twice in AIM-V.\nThe number of cells indicates the number per well of an assay plate. […] The culture volume was adjusted to be 100 μl per well. For each culture condition, 300 μl of culture, which corresponds to 3 wells, was performed. 100 μl per well of the cells pre-cultured under each condition was added into 3 wells in the plate that had been washed in PBS after blocking, and cultured overnight at 37° C. under a condition of 5% CO2. The cultured cells were removed from the wells and washed five times in 200 μl/well of PBS. […] The plate was allowed to stand still at room temperature for 2 hours. This plate was washed five times in 200 μl/well of PBS. Streptavidin to which alkaline phosphatase was bound (MABTECH ELISPot™ for Human Interferon-γ kit) was diluted with PBS supplemented with 0.5% FBS so that 1:1000, and 100 μl thereof per well was added. The plate was left at room temperature for 1 hour. This plate was washed five times in 200 μl/well of PBS. Then, 100 μl of BCIP/NBTplus substrate solution (Wako) was added per well, which was left in a dark place until spots became visible. When the spots became visible to the naked eye, the plate was washed sufficiently in distilled water. After checking that a membrane in the plate is dry, the number of spots were measured using ELISPot™ reader (AID Autoimmun Diagnostika GmbH), and the data were analyzed with AID software version 3.1 (AID)."}},
  "data": [
    {"smiles": "O=P(O)(O)C(O)(Cn1ccnc1)P(=O)(O)O", "note": "[ZOMETA ™, zoledronate sodium hydrate]", "values": [
      {"measurement": "ratio of antigen-specific CD8+ CTLs versus MDA-MB/CD80 cells pulsed with peptides alone", "setting": "[1]", "value": "about 6 times"},
      {"measurement": "ratio of antigen-specific CD8+ CTLs versus dendritic cells pulsed with peptides alone", "setting": "[2]; co-pulse 0.01 μM ZOMETA and 2 μg/ml A27L", "value": "about 4 times"},
      {"measurement": "Ratio (%) of disease antigen-specific CD8+ CTLs", "setting": "[2]; immature dendritic cells, ZOMETA 0.01 μM and/or A27L 2 μg/ml, 7 days co-culture", "value": 0.00, "unit": "%"},
      {"measurement": "increase of tetramer-positive cells by the addition of ZOMETA", "setting": "[3]; day 11, versus apoptotic cells alone", "value": "about 15 times"},
      {"measurement": "Ratio of CD8+ CTLs (%), A27L-specific", "setting": "[3]; day 11 of culture, ZOMETA 0.01 μM, apoptotic MART-1-positive melanoma cells", "value": 0.14, "unit": "%"},
      {"measurement": "The number of CTLs", "setting": "[4]; ZOMETA 0.01 μM", "value": 10845},
      {"measurement": "The total number of cells", "setting": "[4]; ZOMETA 0.01 μM", "value": "2.01 × 10^6"},
      {"measurement": "Ratio of CTLs (%)", "setting": "[4]; ZOMETA 0.01 μM", "value": 0.54, "unit": "%"},
      {"measurement": "The number of CTLs", "setting": "[4]; ZOMETA 0.1 μM", "value": 12130},
      {"measurement": "The total number of cells", "setting": "[4]; ZOMETA 0.1 μM", "value": "2.17 × 10^6"},
      {"measurement": "Ratio of CTLs (%)", "setting": "[4]; ZOMETA 0.1 μM", "value": 0.56, "unit": "%"},
      {"measurement": "The number of CTLs", "setting": "[4]; ZOMETA 1 μM", "value": 11389},
      {"measurement": "The total number of cells", "setting": "[4]; ZOMETA 1 μM", "value": "1.96 × 10^6"},
      {"measurement": "Ratio of CTLs (%)", "setting": "[4]; ZOMETA 1 μM", "value": 0.58, "unit": "%"},
      {"measurement": "The number of CTLs", "setting": "[4]; ZOMETA 5 μM", "value": 21266},
      {"measurement": "The total number of cells", "setting": "[4]; ZOMETA 5 μM", "value": "2.84 × 10^6"},
      {"measurement": "Ratio of CTLs (%)", "setting": "[4]; ZOMETA 5 μM", "value": 0.75, "unit": "%"},
      {"measurement": "The number of CTLs", "setting": "[4]; ZOMETA 20 μM", "value": 21133},
      {"measurement": "The total number of cells", "setting": "[4]; ZOMETA 20 μM", "value": "2.94 × 10^6"},
      {"measurement": "Ratio of CTLs (%)", "setting": "[4]; ZOMETA 20 μM", "value": 0.72, "unit": "%"},
      {"measurement": "ratio of antigen-specific CD8+ CTLs versus dendritic cells pulsed with peptides alone", "setting": "[4]; co-pulse ZOMETA 0 to 20 μM and BMLF1", "value": "about 3.2 times"},
      {"measurement": "The number of IFN-γ producing cells in all of 2500 lymphocytes", "setting": "[5]; Donor A, Lymphocytes + dendritic cells pulsed with peptides (re-stimulation)", "value": 100},
      {"measurement": "The number of IFN-γ producing cells in all of 2500 lymphocytes", "setting": "[5]; Donor A, Lymphocytes alone (no re-stimulation)", "value": 4},
      {"measurement": "The number of IFN-γ producing cells in all of 2500 lymphocytes", "setting": "[5]; Donor B, Lymphocytes + dendritic cells pulsed with peptides (re-stimulation)", "value": 50},
      {"measurement": "The number of IFN-γ producing cells in all of 2500 lymphocytes", "setting": "[5]; Donor B, Lymphocytes alone (no re-stimulation)", "value": 0}
    ]}
  ]
}
